Source: patent US10266526B2, “Substituted 1,2,3-triazoles as SMYD inhibitors for treating cancer” (EPIZYME, INC., priority 2014, dated 2019)

target: SMYD3 (Homo sapiens (Human), UniProt Q9H7B4); assay: SMYD3 biochemical assay (SMYD3 enzyme assay on MEKK2 protein substrate, 3H-SAM scintillation proximity assay); details: Table 1A; average of n = 1 to n = 50; read-out: SMYD3 Biochem IC50
Outline: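 Detection used scintillation proximity beads to capture ³H-methylated GST-MEKK2 after quench with 100 uM final cold SAM. The reaction was started by SAM/MEKK2 addition after a 30 min RT compound–enzyme preincubation. Enzyme was tag-free full-length human SMYD3 from E. coli, in buffer of 25 mM Tris-Cl pH 8.0, 1 mM TCEP, 0.005% BSG, 0.005% Tween 20.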

Sequence of SMYD3 (Q9H7B4 whole entry): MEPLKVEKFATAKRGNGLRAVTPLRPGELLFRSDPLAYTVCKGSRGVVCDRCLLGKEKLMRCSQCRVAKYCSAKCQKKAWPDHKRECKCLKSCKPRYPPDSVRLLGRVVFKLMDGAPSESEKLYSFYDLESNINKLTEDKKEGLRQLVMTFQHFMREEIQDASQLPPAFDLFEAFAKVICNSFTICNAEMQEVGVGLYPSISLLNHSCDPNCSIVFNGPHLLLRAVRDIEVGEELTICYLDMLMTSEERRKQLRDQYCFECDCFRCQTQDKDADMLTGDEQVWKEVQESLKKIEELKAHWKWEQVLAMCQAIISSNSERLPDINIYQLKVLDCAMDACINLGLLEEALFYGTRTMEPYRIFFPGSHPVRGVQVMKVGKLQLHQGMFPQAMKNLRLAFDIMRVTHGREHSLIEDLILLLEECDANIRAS

SMILES | IC50 [µM]
NCCC(=O)N[C@H]1CC[C@H](NC(=O)c2nc3ccncc3s2)CC1 [compound 532, N-((1r,4r)-4-(3-aminopropanamido)cyclohexyl)thiazolo[5,4-c]pyridine-2-carboxamide] | > 50
CCc1cnc(C(=O)N[C@H]2CC[C@H](N)CC2)s1 [compound 554, N-((1r,4r)-4-aminocyclohexyl)-5-ethylthiazole-2-carboxamide] | > 50
N[C@H]1CC[C@H](C(=O)N[C@H]2CC[C@H](NC(=O)c3ncn[nH]3)CC2)CC1 [compound 539, N-((1R,4r)-4-((1r,4R)-4-aminocyclohexane-1-carboxamido)cyclohexyl)-1H-1,2,4-triazole-5-carboxamide] | > 50
Cc1n[nH]c(C(=O)NC(C)C2CCN(C(=O)[C@H](C)N)CC2)n1 (stereo partly drawn) [compound 549, N-(1-(1-(L-alanyl)piperidin-4-yl)ethyl)-3-methyl-1H-1,2,4-triazole-5-carboxamide] | > 50
Cn1cnc(C(=O)N[C@H]2CC[C@H](N)CC2)n1 [compound 544, N-((1r,4r)-4-aminocyclohexyl)-1-methyl-1H-1,2,4-triazole-3-carboxamide] | > 50

same assay, conditions: read-out: SMYD3 Biochem IC50

SMILES | IC50 [µM]
COc1cncc(C(=O)N[C@H]2CC[C@H](N)CC2)n1 [compound 356, N-((1r,4r)-4-aminocyclohexyl)-6-methoxypyrazine-2-carboxamide] | > 100
CC(NC(=O)c1ccc2c(c1)C(=O)C(=O)N2)C1CCN(C(=O)[C@H](C)N)CC1 (stereo partly drawn) [compound 488, N-(1-(1-(L-alanyl)piperidin-4-yl)ethyl)-2,3-dioxoindoline-5-carboxamide] | 14.1
NCCC(=O)N[C@H]1CC[C@H](NC(=O)c2ccc(O)nn2)CC1 [compound 270] | > 100
N[C@H]1CC[C@H](NC(=O)c2cc[n+]([O-])cc2)CC1 [compound 210, 4-(((1r,4r)-4-aminocyclohexyl)carbamoyl)pyridine 1-oxide] | > 100
NCCC(=O)N[C@H]1CC[C@H](NC(=O)c2cncc(O)c2)CC1 [compound 514, N-((1r,4r)-4-(3-aminopropanamido)cyclohexyl)-5-hydroxynicotinamide] | > 50
CC(NC(=O)c1ccc2c(c1)CNC2=O)C1CCN(C(=O)[C@H](C)N)CC1 (stereo partly drawn) [compound 469, N-(1-(1-(L-alanyl)piperidin-4-yl)ethyl)-1-oxoisoindoline-5-carboxamide] | > 100
CC(NC(=O)c1cnccc1N)C1CCN(C(=O)[C@H](C)N)CC1 (stereo partly drawn) [compound 247, N-(1-(1-(L-alanyl)piperidin-4-yl)ethyl)-4-aminonicotinamide] | > 100
N[C@H]1CC[C@H](NC(=O)c2ccc(-n3cncn3)cc2)CC1 [compound 455, N-((1r,4r)-4-aminocyclohexyl)-4-(1H-1,2,4-triazol-1-yl)benzamide] | > 100
Cc1cccc(Cn2nc(C(C)(C)C)cc2C(=O)NC(C)C2CCN(C(=O)[C@H](C)N)CC2)c1 (stereo partly drawn) [compound 299, N-(1-(1-(L-alanyl)piperidin-4-yl)ethyl)-3-(tert-butyl)-1-(3-methylbenzyl)-1H-pyrazole-5-carboxamide] | > 100
NC1CCC(NC(=O)c2c[nH]cn2)CC1 (centres unmarked) [compound 517, N-(4-aminocyclohexyl)-1H-imidazole-4-carboxamide] | > 50
NCCC(=O)N[C@H]1CC[C@H](NC(=O)c2ccnc(O)c2)CC1 [compound 376, N-((1r,4r)-4-(3-aminopropanamido)cyclohexyl)-2-hydroxyisonicotinamide] | > 100
Cc1ccncc1C(=O)N[C@H]1CC[C@H](N)CC1 [compound 339, N-((1r,4r)-4-aminocyclohexyl)-4-methylnicotinamide] | > 100
NCCC(=O)N[C@H]1CC[C@H](NC(=O)c2cc3cc(F)ccc3[nH]2)CC1 [compound 335, N-((1r,4r)-4-(3-aminopropanamido)cyclohexyl)-5-fluoro-1H-indole-2-carboxamide] | > 100
CC(NC(=O)c1ccc2nonc2c1)C1CCN(C(=O)[C@H](C)N)CC1 (stereo partly drawn) [compound 237, N-(1-(1-(L-alanyl)piperidin-4-yl)ethyl)benzo[c][1,2,5]oxadiazole-5-carboxamide] | > 100
NCCC(=O)NC1CCC(NC(=O)c2ccccn2)CC1 (centres unmarked) [compound 297, N-(4-(3-aminopropanamido)cyclohexyl)picolinamide] | 44.2
CC(NC(=O)c1ncccc1O)C1CCN(C(=O)[C@H](C)N)CC1 (stereo partly drawn) [compound 511, N-(1-(1-(L-alanyl)piperidin-4-yl)ethyl)-3-hydroxypicolinamide] | > 50
NCCC(=O)N[C@H]1CC[C@H](NC(=O)c2ccc(-n3cnnc3)cc2)CC1 [compound 329, N-((1r,4r)-4-(3-aminopropanamido)cyclohexyl)-4-(4H-1,2,4-triazol-4-yl)benzamide] | > 100
CC(NC(=O)c1ccc2nc[nH]c2c1)C1CCN(C(=O)[C@H](C)N)CC1 (stereo partly drawn) [compound 193, N-(1-(1-(L-alanyl)piperidin-4-yl)ethyl)-1H-benzo[d]imidazole-6-carboxamide] | > 100
CC(NC(=O)Cc1ccc(F)cc1)C1CCN(C(=O)[C@H](C)N)CC1 (stereo partly drawn) [compound 206, N-(1-(1-(L-alanyl)piperidin-4-yl)ethyl)-2-(4-fluorophenyl)acetamide] | > 100
NCCC(=O)N[C@H]1CC[C@H](NC(=O)c2cc3ccccc3[nH]2)CC1 [compound 233, N-((1r,4r)-4-(3-aminopropanamido)cyclohexyl)-1H-indole-2-carboxamide] | > 100
CC(NC(=O)c1ccc(N2CCCC2)cc1)C1CCN(C(=O)[C@H](C)N)CC1 (stereo partly drawn) [compound 227, N-(1-(1-(L-alanyl)piperidin-4-yl)ethyl)-4-(pyrrolidin-1-yl)benzamide] | 29.2
Cc1cccc(Cn2nc(C(C)(C)C)cc2C(=O)N[C@H]2CC[C@H](NC(=O)CCN)CC2)c1 [compound 340, N-((1r,4r)-4-(3-aminopropanamido)cyclohexyl)-3-(tert-butyl)-1-(3-methylbenzyl)-1H-pyrazole-5-carboxamide] | > 100
NCCC(=O)N[C@H]1CC[C@H](NC(=O)[C@H]2C[C@H](O)CN2)CC1 [compound 434, (2R,4S)-N-((1r,4r)-4-(3-aminopropanamido)cyclohexyl)-4-hydroxypyrrolidine-2-carboxamide] | > 100
NCCC(=O)N[C@H]1CC[C@H](NC(=O)c2ccc(N)cn2)CC1 [compound 437, 5-amino-N-((1r,4r)-4-(3-aminopropanamido)cyclohexyl)picolinamide] | > 100
CC(NC(=O)c1ccc(-c2ccccc2)cc1)C1CCN(C(=O)[C@H](C)N)CC1 (stereo partly drawn) [compound 189, N-(1-(1-(L-alanyl)piperidin-4-yl)ethyl)-[1,1′-biphenyl]-4-carboxamide] | > 100
NCCC(=O)N[C@H]1CC[C@H](NC(=O)c2cccc3c2OC(F)(F)O3)CC1 [compound 440, N-((1r,4r)-4-(3-aminopropanamido)cyclohexyl)-2,2-difluorobenzo[d][1,3]dioxole-4-carboxamide] | > 100

same assay, conditions: read-out: SMYD3 Biochem IC50 (μM)*

SMILES | IC50 [µM]
N[C@@H](Cc1ccc(O)cc1)C(=O)N1CCC(CNC(=O)c2ccc3c(c2)CC(=O)N3)CC1 [compound 102, N-((1-(L-tyrosyl)piperidin-4-yl)methyl)-2-oxoindoline-5-carboxamide] | 1.86
CCC(=O)c1c[nH]c(C(=O)NC(c2ccccc2)C2CCNCC2)c1 (centres unmarked) [compound 77, N-(phenyl(piperidin-4-yl)methyl)-4-propionyl-1H-pyrrole-2-carboxamide] | 10
CN1C(=O)Cc2cc(C(=O)N[C@H]3CC[C@H](N)CC3)ccc21 [compound 84, N-((1r,4r)-4-aminocyclohexyl)-1-methyl-2-oxoindoline-5-carboxamide] | 16.7
CC(NC(=O)c1ccc2[nH]c(=O)[nH]c2c1)C1CCN(C(=O)[C@H](C)N)CC1 (stereo partly drawn) [Cpd. No. 93, N-(1-(1-((S)-2-aminopropanoyl)piperidin-4-yl)ethyl)-2-oxo-2,3-dihydro-1H-benzo[d]imidazole-5-carboxamide] | 6.76
NCCC(=O)N[C@H]1CC[C@H](NC(=O)c2ccc3c(c2)OCO3)CC1 [compound 147, N-((1r,4r)-4-(3-aminopropanamido)cyclohexyl)benzo[d][1,3]dioxole-5-carboxamide] | 98.2
CCOC(=O)C1(CNC(=O)c2ccc3c(c2)CC(=O)N3)CCN(C(=O)[C@H](C)N)CC1 [compound 132, ethyl 1-(L-alanyl)-4-((2-oxoindoline-5-carboxamido)methyl)piperidine-4-carboxylate] | 0.94
CC(NC(=O)c1ccc2c(c1)NC(=O)CC2)C1CCN(C(=O)[C@H](C)N)CC1 (stereo partly drawn) [compound 92, N-(1-(1-(L-alanyl)piperidin-4-yl)ethyl)-2-oxo-1,2,3,4-tetrahydroquinoline-7-carboxamide] | 50
Cc1nc(-c2ccc(C(=O)N[C@H]3CC[C@H](N)CC3)cc2)no1 [compound 137, N-((1r,4r)-4-aminocyclohexyl)-4-(5-methyl-1,2,4-oxadiazol-3-yl)benzamide] | 46.6
O=C1CNc2cc(C(=O)NC3CCNCC3)ccc2N1 [compound 39, 2-oxo-N-(piperidin-4-yl)-1,2,3,4-tetrahydroquinoxaline-6-carboxamide] | 23.9
CC(=O)c1c[nH]c(C(=O)Nc2ccc(CN)cc2)c1 [compound 66, 4-acetyl-N-(4-(aminomethyl)phenyl)-1H-pyrrole-2-carboxamide] | 60.9
CCc1cc(C(=O)N[C@H]2CC[C@H](N)CC2)n(C)n1 [compound 37, N-((1r,4r)-4-aminocyclohexyl)-3-ethyl-1-methyl-1H-pyrazole-5-carboxamide] | 59.9
N[C@H]1CC[C@H](NC(=O)c2ccc3c(c2)CC(=O)N3)CC1 [compound 40, N-((1r,4r)-4-aminocyclohexyl)-2-oxoindoline-5-carboxamide] | 2.84
CCS(=O)(=O)C(C)C(=O)N[C@H]1CC[C@H](N)CC1 (some centres unmarked) [compound 78, N-((1r,4r)-4-aminocyclohexyl)-2-(ethylsulfonyl)propanamide] | 35.2
